Data on 2 compounds can be found in patent US7531676B2, “Lipids” (Celltech R & D Limited, priority 1999, dated 2009).

Structures are written as SMILES. Counter-ions that a name gives are not always drawn.

One experiment relates to Plasmid DNA (pEG/acZ). Kind of experiment: Agarose gel electrophoresis of lipid/plasmid DNA complexes (DNA retardation/condensation). It is filed as binding. On the procedure: Plasmid DNA (pEG/acZ) was prepared at a concentration of 120 μg/ml in water. A lipid according to the invention [for example the hexamine H18 described in the Example above] was prepared in a range of concentrations such that charge ratios of lipid:DNA of 0.25:1, 1:1, 2:1, 4:1, 8:1 would be obtained (based on the assumption that DNA at 120 μg/ml is equivalent to 0.387 mM of negative charge, and the hexamine H18 for example at 10 mg/ml is equivalent to 36.23 mM of positive charge). An equal volume of DNA was added dropwise to a vortexing tube containing the lipid in water. For DNase treatment, DNase I (FPLCpure, Pharmacia) was added at a concentration of 1 unit/1 μg of DNA and tubes were incubated at 37° C. for 10 minutes. To inhibit further action of DNase, EGTA was added to a final concentration of 25 mM. For pronase treatment, protease XIV (Sigma) was added to samples to a final concentration of 150 μg/ml, and samples incubated for 30 min at 37° C. Complexes were disrupted in 0.5% SDS with incubation at 55° C. for 20 min. Serum treatment involved incubating the samples in the presence of 50% foetal calf serum (final concentration) for 30 min at 37° C. EGTA was added to a final concentration of 50 mM in an attempt to prevent subsequent action of serum-associated nucleases. Finally, all samples were analysed by electrophoresis on 0.8% agarose gels.

A further experiment relates to protease XIV (pronase). Kind of experiment: Pronase treatment of lipid/DNA complexes, plasmid integrity by gel. The note with it: protease XIV 150 μg/ml, 30 min at 37° C. The source says: (§1) One of the ultimate goals of current gene therapy research is to develop a delivery system which will remain stable and effective in vivo, since this would remove the need for expensive and time-consuming ex-vivo manipulations. Since intravenous administration offers the possibility of delivery to the largest number of tissue sites, survival of the gene delivery complex in the presence of serum could be an important feature of any effective technology. Many published studies have demonstated the susceptibility of gene delivery complexes to inactivation by serum even at levels as low as 10%. This effect is due, at least in part, to the destabilisation of complexes by a poorly understood mechanism, and this can lead to degradation of the DNA within the complex by serum-associated nucleases. We have therefore formed complexes between the lipids of the invention and plasmid DNA and subjected these to treatment with purified DNase and pronase as well as with 50% foetal calf serum. Integrity of the plasmid DNA was then measured.
(§2) Plasmid DNA (pEG/acZ) was prepared at a concentration of 120 μg/ml in water. […] Finally, all samples were analysed by electrophoresis on 0.8% agarose gels.

Another experiment has as its system DNase I. Kind of experiment: DNase treatment of lipid/DNA complexes, plasmid integrity by gel. To be noted: charge ratio of at least 2:1; DNase I 1 unit/1 μg DNA, 37° C., 10 minutes.
Excerpt: as §1, §2

Experiment [1] deals with Chinese Hamster Ovary (CHO) cells. The experiment is described as follows: CHO transfection with lipid condensed DNA, beta-galactosidase reporter. The experiment is classed as cell-based. To be noted: for β-galactosidase in cell extract mUnits per mg protein: CHO cells, Lipid:DNA mass ratio 8:1, pEG/acZ plasmid; for β-galactosidase expression in the CHO cells (in words): lipid condensed DNA versus non-condensed DNA control (undetectable). The protocol:
Plasmid DNA (pEG/acZ) was prepared at concentrations of typically 60 or 120 μg/ml in water. Solutions of lipids according to the invention were prepared in water over a range of concentrations (typically 30 to 960 μg/ml). An equal volume of DNA was added dropwise to a tube containing a solution of the lipids whilst vortexing the tube.
Chinese Hamster Ovary (CHO) cells were seeded in to 24 well plates at 100,000 cells per well 24 h before experiment. Cells were washed once in Optimem™ medium prior to transfection. Wash medium was removed and replaced with 0.5 ml of Optimem™ to which the required amount of lipid condensed DNA was added (typically 1 to 5 μg DNA equivalent). Usually three replicate transfection wells were set up per condensed DNA sample tested. Cells were incubated for a further 34 h at 37° C., 5% CO2 before removal of the complex and additon of 1 ml of fresh medium (Iscoves™ medium: modified DMEM plus glutamate, asparagine, adenosine, guanosine, cytidine, uridine, thymidine and 10% dialysed foetal calf serum). Cells were cultured for a further 48-72 hours before harvesting and assay. Levels of Beta galactosidase reporter gene activity were determined using an enzyme assay system from Promega as follows. Cells were washed twice with I ml of phosphate buffered saline and solubilised in 200 ul of 1× cell lysis buffer. 50 ul of cell extract was incubated with the provided buffer and substrate o-nitrophenyl-β-D-galactopyranoside and the optical density measured spectrophoto-metrically. Levels of β-gal expression were quantitated by reference to the standard curve and related to the amount of protein in the extract (measured using the BCA assay kit from Pierce) to give a final value expressed as mU of β-gal per mg of protein.

As to `NCCCNCCCCNCC(CCCCCCNC(=O)CCCCCCCCCCCCCCCCCCCCCCCNC(=O)[C@H](O)[C@@H](O)[C@H](O)[C@H](O)CO)CNCCCCNCCCN` (stereo in doubt) [Lipid H18, (trifluoroacetate) salt], in the experiment with Plasmid DNA (pEG/acZ) (charge ratio of 2:1 (H18:DNA), 0.8% agarose gel), the “mobility of plasmid DNA through gel” value was “no DNA entered the gel”. Besides, the “visibility of plasmid DNA by ethidium bromide fluorescence (DNA fully condensed)” value with Plasmid DNA (pEG/acZ) (charge ratios higher than 2:1) is on record as “no longer visible”. Besides, the “resistance of lipid/DNA condensates to treatment by pronase” value in the experiment on protease XIV (pronase) is “resistant”. Also, the “resistance of condensed DNA to treatment by DNase” value in the experiment on DNase I is listed as “resistant”. In experiment [1], the “β-galactosidase in cell extract mUnits per mg protein” value is recorded as 40 ± 9 mUnits per mg protein and the “β-galactosidase expression in the CHO cells (in words)” value is “significant β-galactosidase expression”.

In the case of `NCCCCNCC(CCCCCCNC(=O)CCCCCCCCCCCCCCCCCCCCCCCNC(=O)[C@H](O)[C@H](O)[C@H](O)[C@H](O)CO)CNCCCCN` (stereo in doubt) [Lipid H3, (trifluoroacetate) salt], in experiment [1], the “β-galactosidase in cell extract mUnits per mg protein” value is given as 11 ± 4 mUnits per mg protein and the “β-galactosidase expression in the CHO cells (in words)” value was “significant β-galactosidase expression”.
